This is an account of results in patent publication US4618682A, “2-amino-4,5-dihydro-1H-imidazole-1-carboxanilides” (McNeilab, Inc., priority 1985, dated 1986).

Structures can show the parent of a compound that is named as a salt.

The subject of assay [1] is Spontaneously hypertensive rat. In words: Rodent Antihypertensive Screen (arterial pressure and heart rate, aortic cannula). The class given is in vivo, adult spontaneously hypertensive rats (Charles River). To be noted: for Duration / Effect on heart rate / Max. decr. in MAP: spontaneously hypertensive rat. The source says:
This test evaluates compounds for effects on arterial pressure and heart rate. In this test, the arterial pressure of adult spontaneously hypertensive rats (Charles River) is monitored directly via an aortic cannula. Rats are anesthetized with an inhalation anesthetic (methoxyflurane). The left carotid artery is isolated and cannulated. The tip of the cannula is advanced to the aorta and the cannula is exteriorized behind the neck at the level of the scapula. Animals are placed in individual cages and allowed to recover from the anesthetic and are kept unrestrained. The arterial cannula is connected to the pressure transducer which is attached to the recorder. Heart rate is determined from the arterial pressure recording. The test compounds are administered either orally (p.o.) by gavage or by intraperitoneal (i.p.) injection. The arterial pressure and heart rate are monitored for a minumum of 24 hours. A test compound is considered to be active as an antihypertensive agent if the mean arterial pressure (MAP) indicates a fall of >15 mm of Hg. Each animal serves as his own control. The results of this test employing at least 3 rats per dose level for each compound and performed with various compounds of the present invention are shown in Table I.

The test system of assay [2] is Gastric fistula rat. In words: acute gastric fistula rat test (antisecretory screen). The class given is in vivo, Female Sprague-Dawley rats. The settings on record: for inhibition in vivo at 20 mg/kg: intraduodenal, 20 mg/kg I.D., read-out: % Inhibition of gastric secretion; for ED50: po, 1 hr. As to the method: The principal antisecretory screen is the acute gastric fistula rat test which is carried out as follows: Female Sprague-Dawley rats are used for this study. The weights range from 125-250 gms; however, weights in any given test have a range of ±20 gms. The rats are fasted 24 hours before testing, water is given ad lib. At the time of fasting, the rats are placed in individual cages with wide mesh bottoms. This eliminates the problem of cannibalism and coprophagia. On the day of testing, the rats are weighed beforehand to determine the weight range and to allow for even distribution. Surgery is carried out under light ether anesthesia. As soon as the rat is anesthetized, its teeth are removed using a small pinch pliers. A midline incision is made on the abdomen about 11/2 cm long and the stomach is exposed. If, at this point, the stomach is filled with food or fecal material, the rat is discarded except for orally administered rats. In this case, the stomach contents are gently squeezed into the duodenum. Using a 4-0 polyester fiber suture, a purse string stitch is placed on the fundic portion of the stomach taking care to avoid any blood vessels in the area. A small nick is made into the stomach in the center of the purse string and a cannula, consisting of a small vinyl tube with a flange on one end, is put into the stomach and the purse string is closed tightly around the flange. Immediately following this, the rat is dosed intraduodenally using a volume of 0.5 ml per 100 gm body weight. The abdominal wall and skin are closed simultaneously with three to four 18 mm wound clips. The rat is then placed in a box containing a longitudinal slit which allows the cannula to hang freely and the rat is able to move about unencumbered. At the completion of the procedure, the time is marked 0 minutes. The rat is allowed to stabilize for 30 minutes, at which time the collection tube is discarded and replaced with a clean collection tube to receive the gastric juice. Only a one-hour collection is made for a screening study. In evaluation studies, one- and two-hour collections are made. At the end of the study, the cannula is pulled out and the rat is sacrificed. The gastric contents collected are drained into a centrifuge tube and centrifuged to pack down the sediment. The volume is read and a 1 ml aliquot of the supernatant is put into a beaker containing distilled water and titrated to pH 7 using 0.01 N NaOH. Mean values are determined for volume, titratable acid and total acid output where volume equals total ml of gastric juice minus sediment, titratable acid (mEq/1) equals amount of 0.01 N NaOH needed to titrate the acid to pH 7 times 10 and total acid output equals titratable acid times volume. Results are reported in percent inhibition over control values. In studies using oral administration, the drugs are dosed in a volume of 1 ml per 100 gm body weight one hour before surgery (pretreatment equals 90 minutes). In subcutaneous studies, the drug may be given immediately after the surgical procedure (pretreatment equals 30 minutes) or after the 30-minute stabilization period when the collection tube is changed (pretreatment time equals 0 minutes). The volume used in subcutaneous studies is 0.2 ml per 100 gm body weight.

Take `NC1=NCCN1C(=O)Nc1cc(Cl)cc(Cl)c1` [Example 6, 2-Amino-N-(3,5-dichlorophenyl)-4,5-dihydro-1H-imidazole-1-carboxamide Monohydrochloride Hydrate (16:1)]: in assay [1] (35 mg/kg p.o.), the Duration came to 1.0 h, the “Effect on heart rate” value is on record as -21 beats/min and the “Max. decr. in MAP” value is reported as 22 mm Hg. For the same compound, in assay [2], the inhibition in vivo at 20 mg/kg turned out to be 75% and the ED50 came to 22.3 mg/kg.

For the compound `Cc1cccc(C)c1NC(=O)N1CCN=C1N.Cl` [Example 5, 2-Amino-N-(2,6-dimethylphenyl)-4,5-dihydro-1H-imidazole-1-carboxamide Monohydrochloride], in assay [1] (35 mg/kg p.o.), the Duration came out at 1.0 h, the “Effect on heart rate” value was -27 beats/min and the “Max. decr. in MAP” value is on record as 23 mm Hg. Further, in assay [1] (versus corresponding ureas IV), the “antihypertensive activity compared with corresponding rearranged N-aryl-N'-(4,5-dihydro-1H-imidazol-2-yl) ureas IV” value is “significantly less antihypertensive activity”. The inhibition in vivo at 20 mg/kg in assay [2] turned out to be 88%.

Take `COc1ccc(NC(=O)N2CCN=C2N)cc1.Cl` [Example 20, 2-Amino-4,5-dihydro-N-(4-methoxyphenyl)-1H-imidazole-1carboxamide Monohydrochloride]: in assay [1] (35 mg/kg p.o.), the Duration was determined as 1.0 h, the “Effect on heart rate” value is -38 beats/min and the “Max. decr. in MAP” value came to 16 mm Hg.

`NC1=NCCN1C(=O)Nc1c(Br)cccc1Br` [Example 16, 2-Amino-4,5-dihydro-N-(2,6-dibromophenyl)-1H-imidazole-1-carboxamide Monohydrochloride]: the inhibition in vivo at 20 mg/kg in assay [2] was found to be 64%.

As for `Cl.NC1=NCCN1C(=O)Nc1cc(Cl)ccc1Cl` [Example 7, 2-Amino-N-(2,5-dichlorophenyl)-4,5-dihydro-1H-imidazole-1carboxamide Monohydrochloride], in assay [1] (35 mg/kg p.o.), the Duration came to 1.0 h, the “Effect on heart rate” value is reported as -48 beats/min and the “Max. decr. in MAP” value is listed as 37 mm Hg.

Take `COc1cccc(NC(=O)N2CCN=C2N)c1` [Example 19, 2-Amino-4,5-dihydro-N-(3-methoxyphenyl)-1H-imidazole-1carboxamide Monohydrochloride Hydrate (5:1)]: in assay [2], the inhibition in vivo at 20 mg/kg is 74%.

Consider `COc1ccc(NC(=O)N2CCN=C2N)cc1OC` [Example 4, 2-Amino-N-(3,4-dimethoxyphenyl)-4,5-dihydro-1H-imidazole-1-carboxamide Monohydrochloride Hydrate (4:1)], for which, in assay [1] (100 mg/kg p.o.), the Duration was determined as 11 h, the “Effect on heart rate” value is -215 beats/min and the “Max. decr. in MAP” value amounted to 47 mm Hg.

Regarding `CCc1cccc(C)c1NC(=O)N1CCN=C1N.Cl` [Example 17, 2-Amino-4,5-dihydro-N-(2-ethyl-6-methylphenyl)-1H-imidazole-1carboxamide Monohydrochloride], in assay [2], the inhibition in vivo at 20 mg/kg was determined as 91% and the ED50 worked out at 24.5 mg/kg.

As for `NC1=NCCN1C(=O)Nc1ccccc1` [Example 23, 2-Amino-4,5-dihydro-N-phenyl-1H-imidazole-1-carboxamide Monohydrochloride Hydrate (5:3)], in assay [2], the inhibition in vivo at 20 mg/kg amounted to 92%.

On to `Cl.NC1=NCCN1C(=O)Nc1ccccc1C(F)(F)F` [Example 25, 2-Amino-4,5-dihydro-N-(2-trifluoromethylphenyl)-1H-imidazole-1-carboxamide Monohydrochloride], for which, in assay [1] (35 mg/kg p.o.), the Duration amounted to 0.5 h, the “Effect on heart rate” value is -21 beats/min and the “Max. decr. in MAP” value was 32 mm Hg.

With `Cc1cccc(Cl)c1NC(=O)N1CCN=C1N` [Example 15, 2-Amino-N-(2-chloro-6-methylphenyl)-4,5-dihydro-1H-imidazole-1-carboxamide Monohydrochloride Hydrate (8:1)], the inhibition in vivo at 20 mg/kg in assay [2] was determined as 77%.

On to `Cc1ccccc1NC(=O)N1CCN=C1N` [Example 24, 2-Amino-4,5-dihydro-N-(2-methylphenyl)-1H-imidazole-1-carboxamide Monohydrochloride], for which the inhibition in vivo at 20 mg/kg in assay [2] stood at 65%.

The term ED50 denotes the dose that gives a 50% effect, or the effect in half of the subjects.
